The test has as its system ATGL-KO iPSCs. The test is described as follows: High throughput iPSC chemical screening, Oil Red O (ORO) lipid accumulation. On Z-score: test concentration or dose not given here. It counts as cell-based, mouse. As to conditions: for Rank in normalized ORO score from screen: glycolytic switch compounds.
The mark [1] stands for this setting: normalized ORO level vs DMSO-treated cells, compound present during 7 days differentiation, 96-well, negative = decrease in lipid accumulation.

Structures are written as SMILES. Structures can show the parent of a compound that is named as a salt. Where two headings read alike, the source gives them in different places. Bridge positions count the residues as written; N and C are the ends. Square brackets hold non-standard residues; d marks the D form. Peptide text beside a SMILES is read from it. * marks the point of attachment. Ileψ(thiazoline)Cys = CC[C@H](C)[C@H](N)C1=N[C@H](C(=O)*)CS1; dOrn = NCCC[C@@H](N)C(=O)O

For the compound `CN(C)c1nc(N(C)C)nc(N(C)C)n1` [Altretamine], the “Rank in normalized ORO score from screen” value came out at 814. The Z-score under setting [1] was found to be 0.5601.

As for `Nc1c(Br)cc(Br)cc1CN[C@H]1CC[C@H](O)CC1` [Ambroxol hydrochloride], under setting [1], the Z-score is −0.9433.

Take `Cc1c(N(C)C)c(=O)n(-c2ccccc2)n1C` [Amidopyrine]: the Z-score under setting [1] came out at 0.347. Take `NCC[C@H](O)C(=O)N[C@@H]1C[C@H](N)[C@@H](O[C@H]2O[C@H](CN)[C@@H](O)[C@H](O)[C@H]2O)[C@H](O)[C@H]1O[C@H]1O[C@H](CO)[C@@H](O)[C@H](N)[C@H]1O` [Amikacin hydrate]: the Z-score under setting [1] was found to be 2.444.

Consider `N=C(N)NC(=O)c1nc(Cl)c(N)nc1N` [Amiloride hydrochloride dihydrate], for which the Z-score under setting [1] is on record as 1.955. `Nc1ccc(C(=O)NCC(=O)O)cc1` [Aminohippuric acid] came in with a Z-score under setting [1] of −1.1341.

Consider `Cn1c(=O)c2[nH]cnc2n(C)c1=O` [Aminophylline], for which, under setting [1], the Z-score is −1.0552. The compound `c1ccc(CNc2ncnc3[nH]cnc23)cc1` [Aminopurine, 6-benzyl] displayed a Z-score under setting [1] of −0.7385.

`CCCCc1oc2ccccc2c1C(=O)c1cc(I)c(OCCN(CC)CC)c(I)c1` [Amiodarone hydrochloride]: under setting [1], the Z-score was 0.1139. With `CN(C)CCCO[C@@H]1[C@H]2OC(C)(C)O[C@H]2O[C@@H]1[C@H](O)CO` [Amiprilose hydrochloride], the Z-score under setting [1] is recorded as −0.6893. On the same count and under the same terms, next, `CN(C)CCC=C1c2ccccc2CCc2ccccc21.Cl` [Amitryptiline hydrochloride]: 0.6781. On to `CCN(CC)Cc1cc(Nc2ccnc3cc(Cl)ccc23)ccc1O` [Amodiaquin dihydrochloride dihydrate], for which the Z-score under setting [1] was found to be 0.3315. For the compound `Clc1ccc2c(c1)C(N1CCNCC1)=Nc1ccccc1O2` [Amoxapine], the Z-score under setting [1] is on record as −0.8161. The compound `CC1(C)S[C@@H]2[C@H](NC(=O)[C@H](N)c3ccc(O)cc3)C(=O)N2[C@H]1C(=O)O` [Amoxicillin] came in with a Z-score under setting [1] of −0.1957.

Under setting [1], `C[C@@H]1[C@H](O)[C@@H](C)/C=C/C=C/C=C/C=C/C=C/C=C/C=C/[C@H](O[C@@H]2O[C@H](C)[C@@H](O)[C@H](N)[C@@H]2O)C[C@@H]2O[C@](O)(C[C@@H](O)C[C@@H](O)[C@H](O)CC[C@@H](O)C[C@@H](O)CC(=O)O[C@H]1C)C[C@H](O)[C@H]2C(=O)O` [Amphotericin B] yielded a Z-score of 0.5223.

The compound `CC1(C)S[C@@H]2[C@H](NC(=O)[C@H](N)c3ccccc3)C(=O)N2[C@H]1C(=O)O` [Ampicillin trihydrate] had a Z-score under setting [1] of −1.3793. Under setting [1], `CCCc1ncc(C[n+]2ccccc2C)c(N)n1` [Amprolium hydrochloride] had a Z-score of 0.8329.

`Cc1c(N)c(=O)n(-c2ccccc2)n1C` [Ampyrone]: the Z-score under setting [1] is −0.2996.

Regarding `Nc1cc(-c2ccncc2)c[nH]c1=O` [Amrinone], under setting [1], the Z-score is 1.535. In turn, `c1cncc([C@@H]2CCCCN2)c1` [Anabasine] came in with a Z-score under setting [1] of −0.7781. The compound `C[C@]12CC[C@@H](O)C[C@@H]1CC[C@@H]1[C@@H]2CC[C@]2(C)C(=O)CC[C@@H]12` [Androsterone] gave a Z-score of 1.156. Under setting [1], `COc1ccc(C[C@H]2NC[C@H](O)[C@H]2OC(C)=O)cc1` [Anisomycin] registered a Z-score of 30.3787. Same read-out and setting: next, `Cc1c(O)c(=O)n(-c2ccccc2)n1C` [Antipyrine, 4-hydroxy]: 0.52; `Cc1cc(=O)n(-c2ccccc2)n1C` [Antipyrine]: −0.2127; `O=c1cc(-c2ccc(O)cc2)oc2cc(O)cc(O)c12` [Apigenin]: −0.2208. With `CN[C@@H]1[C@@H](O[C@H]2O[C@H](CO)[C@@H](N)[C@H](O)[C@H]2O)OC2C[C@@H](N)[C@@H](O[C@H]3[C@H](O)[C@@H](O)[C@H](N)C[C@@H]3N)OC2[C@@H]1O` (stereo partly drawn) [Apramycin], the Z-score under setting [1] is recorded as −1.1349. For `OC[C@H]1O[C@@H](Oc2ccc(O)cc2)[C@H](O)[C@@H](O)[C@@H]1O` [Arbutin], under setting [1], the Z-score is listed as 0.1806. On to `NC(N)=NCCCCN=C(N)N` [Arcaine sulfate], for which the Z-score under setting [1] is reported as 0.3237. `COC(=O)C1=CCCN(C)C1` [Arecoline hydrobromide]: under setting [1], the Z-score was 0.1373. As for `C[C@@H]1CC[C@H]2[C@@H](C)C(=O)O[C@@H]3O[C@@]4(C)CC[C@@H]1[C@]32OO4` [Artemisinin], under setting [1], the Z-score is 4.801. Regarding `CCCNC(C)C(=O)Nc1c(C)csc1C(=O)OC` (stereo not drawn) [Articaine hydrochloride], the Z-score under setting [1] worked out at 0.836. `O=C1O[C@H]([C@@H](O)CO)C(O)=C1O` [Ascorbic acid]: the “Rank in normalized ORO score from screen” value amounted to 764. The compound further had a Z-score under setting [1] of 0.3599.

Regarding `COc1ccc(CCN2CCC(Nc3nc4ccccc4n3Cc3ccc(F)cc3)CC2)cc1` [Astemizole], the Z-score under setting [1] is reported as −0.7215. Under setting [1], `O=C1C(O)=C([C@H]2CC[C@H](c3ccc(Cl)cc3)CC2)C(=O)c2ccccc21` [Atovaquone] came in with a Z-score of 0.629. On the same count and under the same terms, the result for `C=C1[C@@H]2CC[C@H]3[C@]4(C)C[C@H](O[C@@H]5O[C@H](CO)[C@@H](OS(=O)(=O)O)[C@H](OS(=O)(=O)O)[C@H]5OC(=O)CC(C)C)C[C@@H](C(=O)O)[C@H]4CC[C@]3(C2)[C@@H]1O` [Atractyloside potassium salt] reads −0.3937; that for `COc1ccc(CC2c3cc(OC)c(OC)cc3CC[N+]2(C)CCC(=O)OCCCCCOC(=O)CC[N+]2(C)CCc3cc(OC)c(OC)cc3C2Cc2ccc(OC)c(OC)c2)cc1OC` (stereo not drawn) [Atracurium besylate], 1.182; that for `CN1[C@@H]2CC[C@H]1C[C@@H](OC(=O)C(CO)c1ccccc1)C2` (stereo partly drawn) [Atropine sulfate monohydrate], 1.183. Turning to `CC1=CC(=O)C2=C(C)C[C@H](O)[C@@H]3[C@H](OC(=O)[C@H]3C)[C@H]12` [Austricine], the Z-score under setting [1] is listed as −0.5795.

`OC(c1ccccc1)(c1ccccc1)C1CCNCC1` [Azacyclonol] displayed a Z-score under setting [1] of −1.0159. As to `Nc1ncn([C@@H]2O[C@H](CO)[C@@H](O)[C@H]2O)c(=O)n1` [Azacytidine-5], the Z-score under setting [1] is given as 16.1728. As to `Nc1nc(O)c2[nH]nnc2n1` [Azaguanine-8], the Z-score under setting [1] was 2.948. In turn, `O=C(CCCN1CCN(c2ccccn2)CC1)c1ccc(F)cc1` [Azaperone] displayed a Z-score under setting [1] of 1.543. Consider `CCCC1C(=O)N2C(N(C)C)=Nc3ccc(C)cc3N2C1=O` (stereo not drawn) [Azapropazone], for which the Z-score under setting [1] was −0.6493. Take `Cn1cnc([N+](=O)[O-])c1Sc1ncnc2nc[nH]c12` [Azathioprine]: under setting [1], the Z-score was 17.2224. In the case of `Cc1n[nH]c(=O)[nH]c1=O` [Azathymine, 6], the Z-score under setting [1] is on record as −0.2304. The compound `CC1(C)S[C@@H]2[C@H](NC(=O)[C@H](NC(=O)N3CCNC3=O)c3ccccc3)C(=O)N2[C@H]1C(=O)O` [Azlocillin sodium salt] came in with a Z-score under setting [1] of −1.1617. The same measure, in the same setting: the result for `C[C@H]1[C@H](NC(=O)/C(=N\OC(C)(C)C(=O)O)c2csc(N)n2)C(=O)N1S(=O)(=O)O` [Aztreonam] reads 0.1728; that for `CCOC(=O)OC(C)OC(=O)[C@@H]1N2C(=O)[C@@H](NC(=O)[C@H](N)c3ccccc3)[C@H]2SC1(C)C` (stereo partly drawn) [Bacampicillin hydrochloride], 0.09702. Compound `CC[C@H](C)[C@H](N)C1=N[C@H](C(=O)N[C@@H](CC(C)C)C(=O)N[C@H](CCC(=O)O)C(=O)N[C@H](C(=O)N[C@H]2CCCCNC(=O)[C@H](CC(N)=O)NC(=O)[C@@H](CC(=O)O)NC(=O)[C@H](Cc3cnc[nH]3)NC(=O)[C@@H](Cc3ccccc3)NC(=O)[C@H]([C@@H](C)CC)NC(=O)[C@@H](CCCN)NC2=O)[C@@H](C)CC)CS1` [Bacitracin] ({Ileψ(thiazoline)Cys}-L[dE]IK[dOrn]I[dF]H[dD]N; lactam 4-C) registered a Z-score under setting [1] of −1.0707. Still for that read-out and setting: next, `CN(C)C(=O)Oc1cc(OC(=O)N(C)C)cc(C(O)CNC(C)(C)C)c1` (stereo not drawn) [Bambuterol hydrochloride]: 0.1858. On to `CCC(=O)OCC(=O)[C@@]1(OC(=O)CC)[C@@H](C)C[C@H]2[C@@H]3CCC4=CC(=O)C=C[C@]4(C)[C@@]3(Cl)[C@@H](O)C[C@@]21C` [Beclomethasone dipropionate], for which the Z-score under setting [1] is −0.2791. `CCC1(C)CC(=O)NC(=O)C1` [Bemegride]: the Z-score under setting [1] is −0.3526. Turning to `NS(=O)(=O)c1cc2c(cc1C(F)(F)F)NC(Cc1ccccc1)NS2(=O)=O` (stereo not drawn) [Bendroflumethiazide], the Z-score under setting [1] was found to be 2.297.

`CC(Cc1cccc(C(F)(F)F)c1)NCCOC(=O)c1ccccc1` (stereo not drawn) [Benfluorex hydrochloride] had a Z-score under setting [1] of −1.1069. Under setting [1], `C/C(=C(\CCOP(=O)(O)O)SC(=O)c1ccccc1)N(C=O)Cc1cnc(C)nc1N` [Benfotiamine] displayed a Z-score of −0.7979. For `CCCCOc1cc(C(=O)OCCN(CC)CC)ccc1N` [Benoxinate hydrochloride], the Z-score under setting [1] worked out at 0.4398.

The compound `O=C(CCCN1CCC(n2c(O)nc3ccccc32)CC1)c1ccc(F)cc1` [Benperidol] displayed a Z-score under setting [1] of −0.2696.

The compound `NC(CO)C(=O)NNCc1ccc(O)c(O)c1O` (stereo not drawn) [Benserazide hydrochloride] gave a Z-score under setting [1] of −0.638. Regarding `NC(=NCc1ccccc1)NC(=O)c1nc(Cl)c(N)nc1N` [Benzamil hydrochloride], under setting [1], the Z-score is −1.083. `CC1(C)S[C@@H]2[C@H](NC(=O)Cc3ccccc3)C(=O)N2[C@H]1C(=O)O.CC1(C)S[C@@H]2[C@H](NC(=O)Cc3ccccc3)C(=O)N2[C@H]1C(=O)O.c1ccc(CNCCNCc2ccccc2)cc1` [Benzathine benzylpenicillin] had a Z-score under setting [1] of 0.238.

Take `CCc1oc2ccccc2c1C(=O)c1cc(Br)c(O)c(Br)c1` [Benzbromarone]: the Z-score under setting [1] is reported as −0.349. `CC(C)(C)CC(C)(C)c1ccc(OCCOCC[N+](C)(C)Cc2ccccc2)cc1` [Benzethonium chloride] yielded a Z-score of 8.105. The compound `CCOC(=O)c1ccc(N)cc1` [Benzocaine] yielded a Z-score under setting [1] of 1.149.

Under setting [1], `CCCCNc1ccc(C(=O)OCCOCCOCCOCCOCCOCCOCCOCCOCCOC)cc1` [Benzonatate] had a Z-score of 0.06563.

(Values after US9393221B2, “Methods and compounds for reducing intracellular lipid storage” (THE GENERAL HOSPITAL CORPORATION, priority 2011, dated 2016).)
